Experimental data: patent US12091656B2, “Method for generating higher order genome editing libraries” (Johann Wolfgang Goethe-Universität Frankfurt am Main, priority 2016, dated 2024)

Columns and labels:
RPE1 cells [1] = experiment: Titration of CYSLTR2 antagonists against Doxorubicin, AlamarBlue cell viability assay; assay type: cell-based, human; conditions: 4 days
Experimental: FIG. 6: Identifying Doxorubicin resistance with an optimized 3Cs-gRNA library. A) Experimental scheme illustrating the usage of hTERT-RPE1 cells, transduced with lentiviral particles (MOI=1) and selected with 1 μM Doxorubicin for three weeks. B) NGS- and bioinformatically-based identification of Doxorubicin-resistance inducing gRNAs and their location within annotated human genomic DNA. C) The CYSLTR2 gene is a reproducible protein-coding hit for which two chemical inhibitors are commercially available. Both inhibitors are titrated versus increasing concentrations of Doxorubicin and induce resistance to Doxorubicin.
Of all remaining gRNAs, 45.6% are located in coding regions, 22.2% are in introns and 10.5% are in non-coding (RNA coding) regions (FIG. 6b). However, 21.7% of gRNAs are located in genomic regions for which no biotype could be assigned, indicating a gap of knowledge for those regions (FIG. 6b). To validate some of the findings in a CRISPR/Cas independent manner, the protein-coding hit gene CYSLTR2 was chosen for which two chemical antagonists are commercially available. The inventors titrated increasing concentrations of Doxorubicin against increasing concentrations of the two compounds (BayCysLTR2 and Bay u9773) and incubated drug exposed RPE1 cells for 4 days after which they were subject to the cell viability assays AlamarBlue.

RPE1 cells [2] = experiment: Doxorubicin effect on RPE1 cell viability (unperturbed conditions); assay type: cell-based, human; conditions: within 4 days

Row | SMILES | strength of the reversion effect compared with the other CYSLTR2 antagonist (RPE1 cells [1]; FIG. 6c) | reversion of the cytotoxic effect of Doxorubicin (RPE1 cells [1]; increasing concentrations titrated against increasing Doxorubicin) | reduction of RPE1 cell viability (RPE1 cells [2])
1 | CCCCC/C=C\C\C=C/C=C/C=C/[C@@H](Sc1ccc(C(=O)O)cc1)[C@@H](O)CCCC(=O)O [Bay u9773] | reproducibly stronger effect | able to revert the cytotoxic effect of Doxorubicin in a dose-dependent manner | 
2 | COc1cccc2c1C(=O)c1c(O)c3c(c(O)c1C2=O)C[C@@](O)(C(=O)CO)C[C@@H]3O[C@H]1C[C@H](N)[C@H](O)[C@H](C)O1 [Doxorubicin] |  |  | robust and dose-dependent reduction of RPE1 cell viability
